Test results taken from PubChem BioAssay AID1996.
Values after ≈ are worked out from the molar mass of the structure shown.

Conditions: buffer; pH 7.4; 200.0 µM

| SMILES | solubility kinetic [µg/mL] |
| --- | --- |
| CC[N+](C)(CC)CCC(c1ccccc1)C1CCCCC1 (stereo not given) | 29.5 |
| COc1cccc(C(=O)NNC(=O)CCC(=O)O)c1 | > 39.9 |
| COc1ccccc1C1CCN(C(=O)c2ccccc2)CC1 | 42.4 (≈ 144 µM) |
| O=C(Cc1ccccc1F)NC1CCSc2ccccc21 (stereo not given) | 8.1 (≈ 26.9 µM) |
| CN(CC(=O)NCCc1ccc(S(N)(=O)=O)cc1)CC(=O)Nc1ccc(F)c(F)c1F | > 68.8 |
| O=C(Nc1ccccn1)c1ccc2c(c1)OCO2 | > 36.3 |
| CC(=O)c1ccc(OC(C)C(=O)Nc2cccc(S(=O)(=O)NCc3ccco3)c2)cc1 (stereo not given) | > 66.4 |
| Cc1cccc(-c2cnn(-c3ccccc3)c2N)c1 | > 37.4 |
| CCOP(=O)(OCC)C(O)c1ccc(N(C)C)cc1 (stereo not given) | > 43.1 |
| CCS(=O)(=O)N1CCC(C(=O)Nc2ccccc2OC)CC1 | 43.3 (≈ 133 µM) |
| Cc1ccc(NC(=O)CN2C(=O)CNC2=O)cc1 | > 37.1 |
| COc1ccccc1C1(O)C(=O)Nc2ccc(C)cc21 (stereo not given) | > 40.4 |
| COc1ccc(NC(=S)Nc2ccccn2)cc1 | 2.8 (≈ 10.8 µM) |
| Nc1c(C(=O)N2CCCC2)sc2nc(-c3ccccc3)ccc12 | 2.1 (≈ 6.49 µM) |
| Cc1ccc(N=Cc2cc3c(cc2[N+](=O)[O-])OCO3)cc1[N+](=O)[O-] | 20.5 (≈ 62.3 µM) |
| NC(=O)c1ccccc1NCC(=O)c1ccc(Cl)cc1 | 2.9 (≈ 10 µM) |
| CS(=O)(=O)N(CC(=O)N1CCN(Cc2ccccc2)CC1)c1cccc(F)c1 | 57.9 (≈ 143 µM) |
| Cc1cc(C)n2nc(SCCC(=O)NCc3ccccc3)nc2n1 | > 51.2 |
| Cc1nc(SCc2ccccc2F)c2oc3ccccc3c2n1 | < 0.3 |
| O=C(Nc1ccc(S(=O)(=O)N2CCCCC2)cc1)C1CC1 | > 46.3 |

| SMILES | solubility kinetic [µg/mL] |
| --- | --- |
| CCc1ccc(S(=O)(=O)N2CCN(c3ncccn3)CC2)cc1 | 1.7 (≈ 5.11 µM) |
| COc1ccc(C(C)(C)C)cc1NC(=O)COC(=O)C(C)C | 33.1 (≈ 108 µM) |
| O=C(c1cc(-c2ccc(F)cc2)nc2ccccc12)N1CCC1 | > 46 |
| O=C1c2ccccc2CN1Cc1ccccc1 | > 33.5 |
| O=C(O)c1cnn2c(-c3ccccc3)ccnc12 | > 35.9 |
| CN(CCC(=O)c1ccccc1)CCC(=O)c1ccccc1 | 42.3 (≈ 143 µM) |
| Cc1cc(C)c(C(=O)Nc2ccc(C)c(C)c2)c(CC(C)(C)C(=O)O)c1 | > 53 |
| CC1(C(=O)O)CCC(C(=O)Nc2ccc(Cl)c(Cl)c2)C1(C)C (stereo not given) | > 51.6 |
| O=C(CSCc1ccc(Br)cc1)NC1CC1 | 38.7 (≈ 129 µM) |
| Cc1cccc(N2CCN(Cc3ccc4c(c3)OCO4)CC2)c1C | 4 (≈ 12.3 µM) |
| O=[N+]([O-])c1ccc(Cl)c(CN2CCN(c3ncccn3)CC2)c1 | 35.1 (≈ 105 µM) |
| CC(=O)c1sc(-c2cccc(Cl)c2)nc1C | 3.1 (≈ 12.3 µM) |
| Cc1ccc(-c2csc(NC(=O)CN3CCOCC3)n2)cc1 | > 47.6 |
| Cc1ccc(C(=O)O/N=C(\N)c2ccccn2)cc1C | 2.6 (≈ 9.65 µM) |
| Cc1ccc(C(CC(=O)N2CCCC2)c2ccccc2)c(O)c1 (stereo not given) | > 46.4 |
| Cc1cc(C)cc(C(=O)Oc2cc(C)[nH]c(=O)c2[N+](=O)[O-])c1 | > 45.3 |
| O=C(COC(=O)c1ccc(Cl)nc1)Nc1ccc(N2CCCCC2)cc1 | 10.9 (≈ 29.2 µM) |
| CC(=O)Nc1nc(C)c(Oc2ccc(Cl)cc2)c(=O)[nH]1 | 43 (≈ 146 µM) |
| CCOc1cc(-c2nc3n(c(=O)c2C#N)CCS3)ccc1O | 5.7 (≈ 18.1 µM) |
| O=C(OCC(=O)N1CCN(c2ccccc2)CC1)c1ccncc1 | > 48.8 |

| SMILES | solubility kinetic [µg/mL] |
| --- | --- |
| CCCCN(C(=O)CSc1nc2ccccc2s1)c1c(N)n(CCCC)c(=O)[nH]c1=O | 35.6 (≈ 77.1 µM) |
| CC(=O)c1sc(C(C)(C)C)cc1NC(=O)CCC(=O)O | > 44.6 |
| CC(=O)c1ccc(O)c(CSC2=NCCS2)c1 | 35.2 (≈ 132 µM) |
| CCOc1ccc2nc(NCCNC(=O)C(C)(C)C)c(C)cc2c1 | 47.1 (≈ 143 µM) |
| COc1ccccc1CN(C)C(=O)CN1C(=O)c2ccccc2C1=O | 17 (≈ 50.2 µM) |
| CC(C)(C)c1ccc(N2C(=O)CC(C/C=C/c3ccccc3)C2=O)cc1 (stereo not given) | < 0.7 |
| CC1(C)CC2CC(C)(CN2C(=O)COC(=O)c2cccc([N+](=O)[O-])c2)C1 (stereo not given) | > 54.1 |
| CN1CCN(CCOc2ccc(Cc3ccccc3)cc2)CC1.Cl | 40.4 |
| Cc1ccc(C(=O)NCC(=O)NC2CCCCCC2)cc1 | 21.1 (≈ 73.2 µM) |
| CCN(CC)c1nc(N)n(CCSC(=S)N(C)C)c(=O)n1 | 45.1 (≈ 136 µM) |
| COC(=O)c1c(NC(C)=O)sc(C)c1C | 31 (≈ 136 µM) |
| CN(C)c1cccc(Oc2nc3c(c(=O)n(C)c(=O)n3C)n2C)c1 | 32.4 (≈ 98.4 µM) |
| COc1cnc(-c2cccc(C(F)(F)F)c2)nc1OC | < 0.3 |
| COC(=O)C1=C(C)N(c2ccccc2)/C(=C/c2ccco2)C1=O | 3.3 (≈ 10.7 µM) |
| Cc1cc(NC(=O)NC(C)(C(F)(F)F)C(F)(F)F)no1 | > 45.8 |
| Cc1cc(-c2nc3ccccc3[nH]2)ccc1N | > 33.5 |
| Cc1c(C)n(CCN(C)C)c2ncnc(NCc3ccccc3)c12 | 42.9 (≈ 133 µM) |
| NC(=O)CSc1nc2ccc([N+](=O)[O-])cc2[nH]1 | > 37.8 |
| CC(=O)c1c(C)[nH]c(C(=O)NCc2cccc(Cl)c2)c1C | 18.9 (≈ 62 µM) |
| COc1cccc(/C=C/C(=O)OCC(=O)NC2CC2)c1OC | 24 (≈ 78.6 µM) |
